Measurements taken from patent publication US9381143B2, “Use of substituted methoxyalkoxyphenylalkyl derivatives as preservative, preserving method, compounds and composition” (L'OREAL, priority 2010, dated 2016).

Tests used:
Test in all cases: Challenge Test (artificial contamination) of cosmetic formula
Format in all cases: cell-based
[1] = system: Pseudomonas aeruginosa (Pa) ATCC 19429; conditions: 2% compound in cosmetic formula; inoculum approx. 10^6 CFU/g; 7 days at 22° C. in the dark; <200 CFU = sensitivity threshold
Method: (§1) The antimicrobial efficacy of a compound of formula (I) was evaluated by the Challenge Test or artificial contamination method.
(§2) The challenge test method consists of an artificial contamination of the sample with microbial strains from collection (bacteria, yeasts and moulds) and of an evaluation of the number of revivable microorganisms seven days after inoculation.
(§3) 5 pure cultures of microorganisms are used.
(§4) The gram−bacterial strains (Escherichia coli and Pseudomonas aeruginosa), the gram+bacterial strain (Enterococcus faecalis), the yeast strain (Candida albicans), and the mould strain (Aspergillus niger) are inoculated into subculturing medium, respectively the day before inoculation for the bacteria and the yeast, and 5 days before inoculation for the mould.
(§5) On the day of inoculation: • a suspension in tryptone salt diluent is prepared respectively for the bacteria and the yeast in such a way as to obtain, on a spectrophotometer, a suspension having an optical density between 35% and 45% of transmitted light at 544 nm; • for the mould, the spores are taken by washing the agar with 6 to 7 ml of harvesting solution and the suspension is recovered in a sterile flask or tube.
(§6) After having homogenized the microbial suspension, 0.2 ml of inoculum (the suspensions are used pure: between 1×10^8 and 3×10^8 CFU per ml) are placed in each pill bottle and the microbial suspension is completely homogenized in the 20 g of product (=cosmetic formula) using a spatula.
(§7) The amount of microorganisms present in the product corresponds, after homogenization, to a concentration of 10^6 microorganisms per gram of product, i.e. the inoculation at 1% of an inoculum containing 10^8 microorganisms per ml. After 7 or 14 days of contact time between the microorganisms and the product at 22° C.±2° C. and in the dark, ten-fold dilutions are carried out and the number of revivable microorganisms remaining in the product is counted.

[2] = system: Escherichia coli (Ec) ATCC 8739; conditions: 2% compound in cosmetic formula; inoculum approx. 10^6 CFU/g; 7 days at 22° C. in the dark; <200 CFU = sensitivity threshold
Method: as §1, §2, §3, §4, §5, §6, §7

[3] = system: Aspergillus niger (An) ATCC 6275; conditions: 2% compound in cosmetic formula, inoculum approx. 10^6 CFU/g
Method: as §1, §2, §3, §4, §5, §6, §7

[4] = system: Candida albicans (Ca) ATCC 10231; conditions: 2% compound in cosmetic formula; inoculum approx. 10^6 CFU/g; 7 days at 22° C. in the dark; <200 CFU = sensitivity threshold
Method: as §1, §2, §3, §4, §5, §6, §7

[5] = system: Enterococcus faecalis (Ef) ATCC 33186; conditions: 2% compound in cosmetic formula, inoculum approx. 10^6 CFU/g
Method: as §1, §2, §3, §4, §5, §6, §7

Q: How did the “Number of CFU/gram of product at T = 7 days, P. aeruginosa” value [1] turn out when `COc1ccc(CCC(C)=O)cc1OC` was run?
A: <200 CFU/gram of product

Q: What about the “Number of CFU/gram of product at T = 7 days, E. coli” value [2] of the same molecule?
A: <200 CFU/gram of product

Q: What about the “Number of CFU/gram of product at T = 7 days, A. niger” value ([3]; 7 days at 22° C. in the dark) of the same molecule?
A: 1.4 · 10^6 CFU/gram of product

Q: What about the “Number of CFU/gram of product at T = 14 days, A. niger” value ([3]; 14 days at 22° C. in the dark) of the same molecule?
A: 3.6 · 10^5 CFU/gram of product

Q: What about the “Number of CFU/gram of product at T = 7 days, C. albicans” value [4] of the same molecule?
A: <200 CFU/gram of product

Q: What about the “Number of CFU/gram of product at T = 7 days, E. faecalis” value ([5]; 7 days at 22° C. in the dark) of the same molecule?
A: 7.3 · 10^5 CFU/gram of product

Q: What about the “Number of CFU/gram of product at T = 14 days, E. faecalis” value ([5]; 14 days at 22° C. in the dark) of the same molecule?
A: 3.3 · 10^8 CFU/gram of product
